Here are results for two compounds from US20250108358A1, “PHOTOCHEMICALLY DRIVEN REGENERATION OF CARBON DIOXIDE SORBENTS” (UT-Battelle, LLC, priority 2023, published 2025).

Structures are written as SMILES.

The nature of series [1]: pH measurements of mPAH 1 solutions under 355 nm lamp irradiation. The format is physicochemical. From the text: Light sources: The light source, referred as the 355 nm lamp thereafter, is a portion of the output of an Oriel 200 W mercury-xenon lamp, which was selected using a 2″ round Oriel broadband filter centered at 355 nm with a full width at half maximum of ˜150 nm and highest transmission of ˜90% (Filters 51664 and 59814). The photon fluxes at the sample position was ˜500 μmol·m^−2·s^−1, which measured using a handheld meter.
pH measurements and absorption spectra measurements: Typically for all experiments using the 355 nm lamp, 6 mL of solution mixtures were placed in a glass vial of diameter ˜2 cm and pH variations of the solutions upon light exposure were monitored continuously using a pH meter. Solutions were exposed to air and continuously stirred during pH measurements and sealed and kept in the dark without stirring for the mPAH 1 reverse reaction. Calculated amount of bicarbonate was replaced prior to second and third cycles. All absorption spectra during a given reaction event were acquired using a UV-vis spectrometer by taking a small amount (˜200 μL) of solution. Co-existence of different mPAH 1 conformers were verified using 1H NMR spectroscopy and theoretical calculations.

Series [2] can be described thus: Total inorganic carbon (TIC) analysis, simulated system with KHCO3. The procedure: (§1) Total inorganic carbon analysis: To quantify the amount of total inorganic carbon converted to CO2, the quantities of bicarbonate in the solution before and after the irradiation were determined using a total inorganic carbon analyzer consisting of an acidification module and a coulometric detection. […] Air was used as carrier gas (100 mL/min) in all experiments. 1 mM KHCO3 solution was tested similarly as the reference sample. Calculations were based on sample volume and 1 M Na2CO3 was used as the standard solution.

A short description of series [3]: Total inorganic carbon (TIC) analysis, CO2-loaded glycine system. The conditions noted are these: for reduction in the inorganic carbon content: vs CO2-loaded glycine solution. The method, then: See F. M. Brethome et al., Nat. Energy 2018, 3, 553-559 and R. Custelcean et al., Ind. Eng. Chem. Res. 2019, 58, 23338-23346.
as §1

The nature of another series: Solubility in water. The format is physicochemical.
Series [4] in a line: Head space CO2 release measurement (infrared sensor, 470 nm LED). Particulars: mPAH 2/morpholine. From the text:
This step is important to reproducibly measure the CO2 release as described below. […] After the reading of CO2 was steady, irradiation was applied from outside of the glass chamber using a 470 nm LED with moderate power (˜ 13 mW/cm^2). The CO2 released to the chamber was monitored using a head space method, as also used in previous studies. The concentration of CO2 gas in the chamber was monitored by the sensor and compared to that of a standard. Not only does this method directly measure the CO2 gas released, but also it is suitable for studying relatively small samples with good sensitivity. […] Addition of a strong acid leads to complete decomposition of the bicarbonate and CO2 release. […] It also reacts with CO2 via an acid-base reaction to form bicarbonate salt.

On to `O=S(=O)([O-])CCC[n+]1c(/C=C/c2cc(S(=O)(=O)[O-])cc3cn[nH]c23)sc2ccccc21.[Na+]` [mPAH 1], for which the “rate of pH increase owing to CO2 release” value in series [1] (1 mM mPAH 1 + 1 mM KHCO3, second cycle of irradiation) is on record as 0.35 pH units/hour; in series [1] (1 mM mPAH 1 + 1 mM KHCO3, third cycle of irradiation), 0.11 pH units/hour. In addition, the pH increment in series [1] (1 mM mPAH 1 + 1 mM KHCO3, third cycle performed only 4 hours after the second cycle) came out at 0.31 pH units/hour. Besides, the “time for full reverse reaction to the initial trans isomer” value in series [1] (mPAH 1 itself, in the dark) fell in the range of 4 to 6 h. Besides, the “total inorganic carbon in the solution converted to CO2” value in series [2] (1 mM mPAH 1 + 1 mM KHCO3 (simulated system), upon irradiation) is reported as 55%. Further, the “total bicarbonate converted to CO2” value in series [2] (2 mM mPAH 1 pre-irradiated 30 min, mixed with equal volume 2 mM KHCO3, reaction without irradiation) is roughly 3%; in series [2] (2 mM mPAH 1 pre-irradiated, mixed with equal volume 2 mM KHCO3, continuous irradiation), roughly 50%. In addition, the “reduction in the inorganic carbon content” value in series [3] (1 mM mixture of CO2-loaded glycine and mPAH 1, upon irradiation) is listed as “approximately 68%”; in series [3] (20 mM mixture of CO2-loaded glycine and mPAH 1, upon irradiation) it was roughly 78%. The “efficiency of conversion of total inorganic carbon to CO2” value in series [3] (amino acid (AA)-based DAC systems, with respect to initial concentrations) is on record as 68%-78%.

As for `COC(=O)c1ccc2sc(/C=C/c3cc(S(=O)(=O)[O-])cc4cn[nH]c34)[n+](CCCS(=O)(=O)O)c2c1` [mPAH 2], the solubility in water result in “Solubility in water” is recorded as “about 30 mM”. For the same compound, in series [4], the “time after start of irradiation at which head space [CO2] rose” value is roughly 5 min.
